Like-named read-outs stand apart in the source and are kept apart here.
How the values were obtained:
[1] = test system: gel-filtered human platelets; assay: Inhibition of aggregation of gel-filtered human platelets after ADP or thrombin stimulation; assay type: cell-based
Procedure: (§1) The compounds are tested in particular for their inhibitory action in blood platelet aggregation and the adhesion of fibrinogen to blood platelets. Gel-filtered blood platelets from human donor blood are used, which are activated with ADP or thrombin.
As a functional test, the inhibition of aggregation of gel-filtered human platelets by the compounds according to the invention is measured after ADP or thrombin stimulation. The IC50 value of the inhibition is given.

[2] = target: T1, fibrinogen receptor (glycoprotein IIb/IIIa) (Homo sapiens, UniProt P05106+P08514); assay: Inhibition of binding of 125I-fibrinogen to its receptor on intact, gel-filtered human platelets; details: inhibition of 125I-fibrinogen binding, stimulation with ADP (10 μM), read-out: Ki (μM), ADP-stimulated
T1 construct: endogenous in cells
T1 sequence (P08514 32-887 limits assumed): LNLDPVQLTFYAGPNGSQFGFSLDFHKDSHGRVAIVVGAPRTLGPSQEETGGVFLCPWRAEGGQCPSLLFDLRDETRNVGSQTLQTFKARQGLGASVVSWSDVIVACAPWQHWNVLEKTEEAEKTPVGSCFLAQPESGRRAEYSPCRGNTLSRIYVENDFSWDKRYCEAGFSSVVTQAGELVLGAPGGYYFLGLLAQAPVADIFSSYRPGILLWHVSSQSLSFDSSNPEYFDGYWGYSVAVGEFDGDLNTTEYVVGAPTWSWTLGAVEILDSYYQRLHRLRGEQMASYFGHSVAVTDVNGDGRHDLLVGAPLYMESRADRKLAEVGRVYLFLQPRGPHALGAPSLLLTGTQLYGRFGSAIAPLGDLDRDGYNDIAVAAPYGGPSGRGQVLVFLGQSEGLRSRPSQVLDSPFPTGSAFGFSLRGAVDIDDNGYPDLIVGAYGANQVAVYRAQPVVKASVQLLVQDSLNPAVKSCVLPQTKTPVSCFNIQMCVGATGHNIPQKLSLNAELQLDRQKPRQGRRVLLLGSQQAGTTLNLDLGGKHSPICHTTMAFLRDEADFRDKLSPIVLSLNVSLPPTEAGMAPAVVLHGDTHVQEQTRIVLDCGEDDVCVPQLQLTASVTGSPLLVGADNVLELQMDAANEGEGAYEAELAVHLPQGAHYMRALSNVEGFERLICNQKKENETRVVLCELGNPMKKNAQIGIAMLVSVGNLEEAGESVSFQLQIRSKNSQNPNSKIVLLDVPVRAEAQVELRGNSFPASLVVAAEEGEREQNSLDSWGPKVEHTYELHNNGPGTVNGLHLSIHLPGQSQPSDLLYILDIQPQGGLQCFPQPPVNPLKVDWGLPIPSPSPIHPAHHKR
T1 sequence (P08514 891-1039 partner limits assumed): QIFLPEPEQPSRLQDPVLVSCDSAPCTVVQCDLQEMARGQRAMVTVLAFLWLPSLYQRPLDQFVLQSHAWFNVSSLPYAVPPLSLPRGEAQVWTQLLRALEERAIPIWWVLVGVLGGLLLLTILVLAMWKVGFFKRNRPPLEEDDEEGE
T1 sequence (P05106 27-788): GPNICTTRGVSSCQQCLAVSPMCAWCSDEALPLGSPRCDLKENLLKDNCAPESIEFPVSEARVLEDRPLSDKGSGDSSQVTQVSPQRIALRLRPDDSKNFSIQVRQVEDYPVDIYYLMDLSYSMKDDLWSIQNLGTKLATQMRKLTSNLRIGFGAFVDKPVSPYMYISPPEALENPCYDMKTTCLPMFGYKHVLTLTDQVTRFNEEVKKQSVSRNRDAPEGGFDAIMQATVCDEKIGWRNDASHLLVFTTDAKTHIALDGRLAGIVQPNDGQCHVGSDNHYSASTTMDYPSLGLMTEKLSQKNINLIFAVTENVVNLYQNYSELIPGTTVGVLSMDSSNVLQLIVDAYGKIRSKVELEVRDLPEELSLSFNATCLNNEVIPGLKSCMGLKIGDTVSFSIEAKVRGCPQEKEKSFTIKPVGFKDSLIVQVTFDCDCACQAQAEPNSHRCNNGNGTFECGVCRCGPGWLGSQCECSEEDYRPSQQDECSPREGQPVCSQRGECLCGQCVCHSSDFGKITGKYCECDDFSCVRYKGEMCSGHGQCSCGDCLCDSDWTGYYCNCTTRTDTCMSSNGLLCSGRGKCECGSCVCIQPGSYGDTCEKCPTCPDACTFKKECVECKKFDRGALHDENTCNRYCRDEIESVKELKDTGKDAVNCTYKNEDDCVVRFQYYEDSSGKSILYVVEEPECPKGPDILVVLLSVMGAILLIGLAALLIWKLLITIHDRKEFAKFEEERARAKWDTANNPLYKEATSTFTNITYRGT
Procedure: as §1
The inhibition of the binding of fibrinogen to its receptor (glycoprotein IIb/IIIa) by the compounds according to the invention is tested on intact, gel-filtered human platelets. The Ki value of the inhibition of binding of ^125 I-fibrinogen after stimulation with ADP (10 μM) is given. (References: J. S. Bennett and G. Vilaire, J. Clin. Invest. 64 (1979), 1393-1401; E. Kornecki et al., J. Biol. Chem. 256 (1981), 5695-5701; G. A. Marguerie et al., J. Biol. Chem. 254 (1979), 5357-5363; G. A. Marguerie et al., J. Biol. Chem. 255 (1980), 154-161).

Structure (SMILES)	IC50 ([1]; inhibition of aggregation of gel-filtered human platelets, ADP stimulation, read-out: ADP-stimulated IC50) [nM]	IC50 ([1]; inhibition of aggregation of gel-filtered human platelets, thrombin stimulation; read-out: Thrombin-stimulated IC50 9 μM)) [nM]	Ki [2] [µM]	IC50 ([1]; Platelet, inhibition of aggregation of gel-filtered human platelets, ADP stimulation, read-out: ADP-stimulated IC50) [nM]	IC50 ([1]; Platelet; inhibition of aggregation of gel-filtered human platelets, thrombin stimulation; read-out: Thrombin-stimulated IC50 9 μM)) [nM]
N=C(N)Nc1ccc(C2NC(=O)N(CC(=O)N[C@@H](CC(=O)O)C(=O)N[C@H](C(=O)O)c3ccccc3)C2=O)cc1 (stereo partly drawn) [Example 1, (5-(4-Guanidinophenyl)-2,4-dioxoimidazolin-3-yl)acetyl-L-aspartyl-L-phenylglycine]	200	70	0.03	–	–
N=C(N)Nc1cccc(C2NC(=O)N(CC(=O)N[C@@H](CC(=O)O)C(=O)N[C@H](C(=O)O)c3ccccc3)C2=O)c1 (stereo partly drawn) [Example 2]	–	–	2	6000	3000
